Reference: patent publication US20250186437A1, “CARBOLINE COMPOUNDS AND USE THEREOF” (PTC Therapeutics, Inc., priority 2021, published 2025)

The compounds below were run on MOLM-13 cells (assay: MOLM-13 Cell Proliferation Assay (indicator of DHODH inhibition)). Details: Homo sapiens, 72 Hours of culture, CellTiter-Glo, no uridine.
Format: cell-based
Procedure, shortened: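 Low-passage MOLM-13 cells (10^4/well) in RPMI 1640 + 10% FBS exposed to compound (0.5% DMSO final) for 72 h at 37 °C, 5% CO2. Viability read by CellTiter-Glo luminescence; growth reflects de novo pyrimidine synthesis dependent on DHODH.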

**Q.** With `FC(F)(F)c1cnnc(N2CCc3c([nH]c4ccc(Cl)cc34)C2c2ccc(N3CCOCC3)nc2)n1` (stereo not shown) [Compound 429, 6-chloro-1-[6-(morpholin-4-yl)pyridin-3-yl]-2-[5-(trifluoromethyl)-1,2,4-triazin-3-yl]-2,3,4,9-tetrahydro-1H-pyrido[3,4-b]indole] as the compound, how does the IC50 read?
**A.** The IC50 was 1.6 nM.

**Q.** How did the IC50 turn out when `Cc1ccc(C2c3[nH]c4ccc(Cl)cc4c3CCN2c2nncc(C(F)(F)F)n2)cc1` (stereo not shown) [Compound 430, 6-chloro-1-(4-methylphenyl)-2-[5-(trifluoromethyl)-1,2,4-triazin-3-yl]-2,3,4,9-tetrahydro-1H-pyrido[3,4-b]indole] was run?
**A.** Its IC50 is 1.8 nM.

**Q.** How did the IC50 turn out when `Fc1nc(N2CCOCC2)ccc1C1c2[nH]c3ccc(Cl)cc3c2CCN1c1nccc(C(F)(F)F)n1` (stereo not shown) [Compound 432, 6-chloro-1-[2-fluoro-6-(morpholin-4-yl)pyridin-3-yl]-2-[4-(trifluoromethyl)pyrimidin-2-yl]-2,3,4,9-tetrahydro-1H-pyrido[3,4-b]indole] was run?
**A.** Its IC50 is 1.6 nM.

**Q.** With `N#Cc1cc(C(F)(F)F)nc(N2CCc3c([nH]c4ccc(Cl)cc34)[C@@H]2c2ccc(N3CCOCC3)nc2)n1` [Compound 433, 2-{(1S)-6-chloro-1-[6-(morpholin-4-yl)pyridin-3-yl]-1,3,4,9-tetrahydro-2H-pyrido[3,4-b]indol-2-yl}-6-(trifluoromethyl)pyrimidine-4-carbonitrile] as the compound, how does the IC50 read?
**A.** The IC50 was 1.1 nM.

**Q.** `N#Cc1cc(C(F)(F)F)nc(N2CCc3c([nH]c4ccc(Cl)cc34)[C@@H]2c2cnc(N3CCOCC3)nc2)n1` [Compound 434, 2-{(1S)-6-chloro-1-[2-(morpholin-4-yl)pyrimidin-5-yl]-1,3,4,9-tetrahydro-2H-pyrido[3,4-b]indol-2-yl}-6-(trifluoromethyl)pyrimidine-4-carbonitrile] was tested. Which IC50 did it give?
**A.** The IC50 was 1.2 nM.

**Q.** For `Cc1ccc([C@H]2c3[nH]c4ccc(Cl)cc4c3CCN2c2nc(N3CCOCC3)nc(C(F)(F)F)n2)c(F)c1F` [Compound 436, (1S)-6-chloro-1-(2,3-difluoro-4-methylphenyl)-2-[4-(morpholin-4-yl)-6-(trifluoromethyl)-1,3,5-triazin-2-yl]-2,3,4,9-tetrahydro-1H-pyrido[3,4-b]indole], which IC50 is on record?
**A.** The IC50 was 0.6 nM.

**Q.** With `Cc1ccc(C2c3[nH]c4ccc(Cl)cc4c3CCN2c2nc(C)nc(C(F)(F)F)n2)cc1` (stereo not shown) [Compound 437, 6-chloro-1-(4-methylphenyl)-2-[4-methyl-6-(trifluoromethyl)-1,3,5-triazin-2-yl]-2,3,4,9-tetrahydro-1H-pyrido[3,4-b]indole] as the compound, how does the IC50 read?
**A.** The IC50 was 1.8 nM.

**Q.** Which IC50 does the source give for `Cc1nc(N2CCc3c([nH]c4ccc(Cl)cc34)C2c2ccc(C)c(F)c2F)nc(C(F)(F)F)n1` (stereo not shown) [Compound 438, 6-chloro-1-(2,3-difluoro-4-methylphenyl)-2-[4-methyl-6-(trifluoromethyl)-1,3,5-triazin-2-yl]-2,3,4,9-tetrahydro-1H-pyrido[3,4-b]indole] here?
**A.** Its IC50 is 0.6 nM.

**Q.** Which IC50 does the source give for `Cc1nc(N2CCc3c([nH]c4ccc(Cl)cc34)C2c2ccc(N3CCOCC3)nc2)nc(C(F)(F)F)n1` (stereo not shown) [Compound 439, 6-chloro-2-[4-methyl-6-(trifluoromethyl)-1,3,5-triazin-2-yl]-1-[6-(morpholin-4-yl)pyridin-3-yl]-2,3,4,9-tetrahydro-1H-pyrido[3,4-b]indole] here?
**A.** Its IC50 is 1.9 nM.

**Q.** With `Cc1nc(N2CCc3c([nH]c4ccc(Cl)cc34)C2c2cnc(N3CCOCC3)nc2)nc(C(F)(F)F)n1` (stereo not shown) [Compound 440, 6-chloro-2-[4-methyl-6-(trifluoromethyl)-1,3,5-triazin-2-yl]-1-[2-(morpholin-4-yl)pyrimidin-5-yl]-2,3,4,9-tetrahydro-1H-pyrido[3,4-b]indole] as the compound, how does the IC50 read?
**A.** Its IC50 is 2.1 nM.

**Q.** With `Cc1ccc([C@H]2c3[nH]c4ccc(Cl)cc4c3CCN2c2nc(N(C)C)nc(C(F)(F)F)n2)cc1` [Compound 441, 4-[(1S)-6-chloro-1-(4-methylphenyl)-1,3,4,9-tetrahydro-2H-pyrido[3,4-b]indol-2-yl]-N,N-dimethyl-6-(trifluoromethyl)-1,3,5-triazin-2-amine] as the compound, how does the IC50 read?
**A.** The IC50 was 5.7 nM.

**Q.** Which IC50 does the source give for `Cc1ccc([C@H]2c3[nH]c4ccc(Cl)cc4c3CCN2c2nc(N3CCOCC3)nc(C(F)(F)F)n2)cc1` [Compound 442, (1S)-6-chloro-1-(4-methylphenyl)-2-[4-(morpholin-4-yl)-6-(trifluoromethyl)-1,3,5-triazin-2-yl]-2,3,4,9-tetrahydro-1H-pyrido[3,4-b]indole] here?
**A.** Its IC50 is 3.4 nM.

**Q.** Which IC50 does the source give for `CN(C)c1nc(N2CCc3c([nH]c4ccc(Cl)cc34)[C@@H]2c2ccc(N3CCOCC3)nc2)nc(C(F)(F)F)n1` [Compound 443, 4-{(1S)-6-chloro-1-[6-(morpholin-4-yl)pyridin-3-yl]-1,3,4,9-tetrahydro-2H-pyrido[3,4-b]indol-2-yl}-N,N-dimethyl-6-(trifluoromethyl)-1,3,5-triazin-2-amine] here?
**A.** The IC50 was 3.1 nM.

**Q.** `CN(C)c1nc(N2CCc3c([nH]c4ccc(Cl)cc34)[C@@H]2c2cnc(N3CCOCC3)nc2)nc(C(F)(F)F)n1` [Compound 444, 4-{(1S)-6-chloro-1-[2-(morpholin-4-yl)pyrimidin-5-yl]-1,3,4,9-tetrahydro-2H-pyrido[3,4-b]indol-2-yl}-N,N-dimethyl-6-(trifluoromethyl)-1,3,5-triazin-2-amine] was tested. Which IC50 did it give?
**A.** The IC50 was 5.8 nM.

**Q.** Which IC50 does the source give for `FC(F)(F)c1nc(N2CCOCC2)nc(N2CCc3c([nH]c4ccc(Cl)cc34)[C@@H]2c2cnc(N3CCOCC3)nc2)n1` [Compound 445, (1S)-6-chloro-1-[2-(morpholin-4-yl)pyrimidin-5-yl]-2-[4-(morpholin-4-yl)-6-(trifluoromethyl)-1,3,5-triazin-2-yl]-2,3,4,9-tetrahydro-1H-pyrido[3,4-b]indole] here?
**A.** The IC50 was 5.2 nM.

**Q.** For `FC(F)(F)c1nc(N2CCOCC2)nc(N2CCc3c([nH]c4ccc(Cl)cc34)[C@@H]2c2ccc(N3CCOCC3)nc2)n1` [Compound 446, (1S)-6-chloro-1-[6-(morpholin-4-yl)pyridin-3-yl]-2-[4-(morpholin-4-yl)-6-(trifluoromethyl)-1,3,5-triazin-2-yl]-2,3,4,9-tetrahydro-1H-pyrido[3,4-b]indole], which IC50 is on record?
**A.** The IC50 was 2.7 nM.

**Q.** How did the IC50 turn out when `N#Cc1ccc(C2c3[nH]c4ccc(Cl)cc4c3CCN2c2nccc(C(F)(F)F)n2)cc1` (stereo not shown) [Compound 447, 4-{6-chloro-2-[4-(trifluoromethyl)pyrimidin-2-yl]-2,3,4,9-tetrahydro-1H-pyrido[3,4-b]indol-1-yl}benzonitrile] was run?
**A.** Its IC50 is 4.8 nM.

**Q.** For `Cc1nc(C)nc(N2CCc3c([nH]c4ccc(Cl)cc34)C2c2ccc(Cl)cc2)n1` (stereo not shown) [Compound 449, 6-chloro-1-(4-chlorophenyl)-2-(4,6-dimethyl-1,3,5-triazin-2-yl)-2,3,4,9-tetrahydro-1H-pyrido[3,4-b]indole], which IC50 is on record?
**A.** Its IC50 is 15.2 nM.

**Q.** `Cc1nc(C)nc(N2CCc3c([nH]c4ccc(Cl)cc34)C2c2ccc(F)cc2)n1` (stereo not shown) [Compound 450, 6-chloro-2-(4,6-dimethyl-1,3,5-triazin-2-yl)-1-(4-fluorophenyl)-2,3,4,9-tetrahydro-1H-pyrido[3,4-b]indole] was tested. Which IC50 did it give?
**A.** The IC50 was 29.8 nM.

**Q.** Which IC50 does the source give for `Cc1nc(C)nc(N2CCc3c([nH]c4ccc(Cl)cc34)C2c2ccc(F)cc2F)n1` (stereo not shown) [Compound 451, 6-chloro-1-(2,4-difluorophenyl)-2-(4,6-dimethyl-1,3,5-triazin-2-yl)-2,3,4,9-tetrahydro-1H-pyrido[3,4-b]indole] here?
**A.** The IC50 was 8 nM.

**Q.** Which IC50 does the source give for `Cc1ccc(C2c3[nH]c4ccc(Cl)cc4c3CCN2c2nc(C)nc(C)n2)c(F)c1` (stereo not shown) [Compound 452, 6-chloro-2-(4,6-dimethyl-1,3,5-triazin-2-yl)-1-(2-fluoro-4-methylphenyl)-2,3,4,9-tetrahydro-1H-pyrido[3,4-b]indole] here?
**A.** Its IC50 is 5.1 nM.

**Q.** How did the IC50 turn out when `Cc1nc(C)nc(N2CCc3c([nH]c4ccc(Cl)cc34)C2c2ccc(C#N)cc2F)n1` (stereo not shown) [Compound 453, 4-[6-chloro-2-(4,6-dimethyl-1,3,5-triazin-2-yl)-2,3,4,9-tetrahydro-1H-pyrido[3,4-b]indol-1-yl]-3-fluorobenzonitrile] was run?
**A.** The IC50 was 4.9 nM.

**Q.** How did the IC50 turn out when `FC(F)(F)c1cc(C(F)(F)F)nc(N2CCc3c([nH]c4ccc(-n5nccn5)cc34)C2c2ccc(N3CCOCC3)nc2)n1` (stereo not shown) [Compound 454, 2-[4,6-bis(trifluoromethyl)pyrimidin-2-yl]-1-[6-(morpholin-4-yl)pyridin-3-yl]-6-(2H-1,2,3-triazol-2-yl)-2,3,4,9-tetrahydro-1H-pyrido[3,4-b]indole] was run?
**A.** Its IC50 is 0.7 nM.

**Q.** `Cc1cnn(-c2ccc3[nH]c4c(c3c2)CCN(c2nc(C(F)(F)F)cc(C(F)(F)F)n2)C4c2ccc(N3CCOCC3)nc2)n1` (stereo not shown) [Compound 455, 2-[4,6-bis(trifluoromethyl)pyrimidin-2-yl]-6-(4-methyl-2H-1,2,3-triazol-2-yl)-1-[6-(morpholin-4-yl)pyridin-3-yl]-2,3,4,9-tetrahydro-1H-pyrido[3,4-b]indole] was tested. Which IC50 did it give?
**A.** Its IC50 is 5.2 nM.

**Q.** How did the IC50 turn out when `FC1(F)CN(c2ccnc(N3CCc4c([nH]c5ccc(Cl)cc45)[C@@H]3c3cnc(N4CCOCC4)nc3)n2)C1` [Compound 456, (1S)-6-chloro-2-[4-(3,3-difluoroazetidin-1-yl)pyrimidin-2-yl]-1-[2-(morpholin-4-yl)pyrimidin-5-yl]-2,3,4,9-tetrahydro-1H-pyrido[3,4-b]indole] was run?
**A.** The IC50 was 17.1 nM.

**Q.** How did the IC50 turn out when `Cc1nc(N2CC(F)(F)C2)nc(N2CCc3c([nH]c4ccc(Cl)cc34)[C@@H]2c2cnc(N3CCOCC3)nc2)n1` [Compound 457, (1S)-6-chloro-2-[4-(3,3-difluoroazetidin-1-yl)-6-methyl-1,3,5-triazin-2-yl]-1-[2-(morpholin-4-yl)pyrimidin-5-yl]-2,3,4,9-tetrahydro-1H-pyrido[3,4-b]indole] was run?
**A.** Its IC50 is 5.8 nM.

**Q.** How did the IC50 turn out when `FC(F)(F)c1cnc(N2CCc3c([nH]c4ccc(Cl)cc34)C2c2cnc(N3CCOCC3)nc2)nn1` (stereo not shown) [Compound 458, 6-chloro-1-[2-(morpholin-4-yl)pyrimidin-5-yl]-2-[6-(trifluoromethyl)-1,2,4-triazin-3-yl]-2,3,4,9-tetrahydro-1H-pyrido[3,4-b]indole] was run?
**A.** Its IC50 is 4.6 nM.

**Q.** `Cc1nc(C)nc(N2CCc3c([nH]c4ccc(Cl)cc34)C2c2ccc(N3CCOCC3)nc2F)n1` (stereo not shown) [Compound 459, 6-chloro-2-(4,6-dimethyl-1,3,5-triazin-2-yl)-1-[2-fluoro-6-(morpholin-4-yl)pyridin-3-yl]-2,3,4,9-tetrahydro-1H-pyrido[3,4-b]indole] was tested. Which IC50 did it give?
**A.** Its IC50 is 3 nM.
